Laboratory results published in ChEMBL document CHEMBL3507680, “University of Dundee, Gates Library screen for HepG2 cell viability”.

Test: Human HepG2 cell viability assay in 384 well format
Format: toxicity, cell-based
Parameters: dose 125 nL, time 70.5 hour; cytotoxicity at 70.5 h: concentration not given beside the values
Conditions: HepG2 cells, read-out: Inhibition

| SMILES | cytotoxicity at 70.5 h [%] |
| --- | --- |
| O=c1n(Cc2ccccn2)nc(C2CCNCC2)n1Cc1ccccc1 | 1.51 |
| Cn1nc(CN2CCCCC(N)C2)c2c(Cl)cccc21 (centres undefined) | 36.9 |
| Cc1noc(C)c1CN1C(=O)[C@H]2CC[C@@H]1CN(Cc1ccc(Cl)cc1)C2 | 8.52 |
| Cc1nc(C2CCN(C(=O)COC(C)C)CC2)cc(N2CCOCC2)n1 | -8.64 |
| COc1cc(C)ccc1C(=O)N1C[C@@H](CN(C)CCO)[C@@H](CO)C1 | 4.4 |
| CCC[C@@H]1CN(C(=O)c2ccccc2C(C)=O)C[C@H]1N(C)C | 7.99 |
| CCOCCC(=O)N1CCCN(c2ccccc2C)CC1 | -4.5 |
| O=C(NCc1ccncc1)C1CN(c2nc3ccccc3s2)CCN1 (centres undefined) | -0.512 |
| CN(C)CCNC(=O)c1ccc(OC2CCN(CC3CC3)CC2)c(Cl)c1 | 0.798 |
| Cc1nc2cc(CNC(=O)C3CC(=O)N(CCN(C)C)C3)ccc2n1C (centres undefined) | -2.99 |
| COCCN(C)C[C@@H]1CN(C(=O)C(C)(C)c2ccccc2)C[C@@H]1CO | 12.6 |
| CS(=O)(=O)NC1CCN(Cc2ccc(OCc3ccccn3)cc2)CC1 | -5.51 |
| Fc1ccccc1-c1cc(N2[C@@H]3CC[C@H]2CNC3)n2nccc2n1 | -3.67 |
| CCOc1ccccc1CC(=O)N1C[C@@H](C(=O)O)[C@H](c2ccncc2)C1 | 37.4 |
| CCNC(=O)[C@@H]1C[C@@H](NC(=O)c2ccc(C)s2)CN1Cc1ccccn1 | -2.7 |
| Cc1ncsc1CCn1ccnc1-c1cc2n(n1)CCCNC2 | 5.55 |
| CN(C)c1ncnc2c1CCN(S(=O)(=O)c1cccc3nsnc13)C2 | -5.63 |
| COc1cccc(Cl)c1C(C(=O)O)N1CCC(O)(c2cccnc2)CC1 (centres undefined) | -3.34 |
| COc1c(F)cc(-c2cccc3c2OC(CN)C3)cc1F (centres undefined) | 0.0982 |
| CC(c1cn2ncsc2n1)N1Cc2ncccc2C1=O (centres undefined) | -10.3 |
| Cc1nc[nH]c1CN1C[C@@H]2CC[C@H](C1)N(C(=O)c1cnn(C)c1)C2 | 7.73 |
| CCOCCn1nc(C)cc1C(=O)N1CCCC[C@H](N(C)C)C1 | -4.33 |
| CC(C)n1ccnc1C1CCN(C(=O)c2ccccn2)CC1 | -6.85 |
| Cc1cccc(C(C(=O)NCC2(Cn3nc(C)cc3C)CC2)N(C)C)c1 (centres undefined) | -2.42 |
| CCOC(=O)CC1(Nc2nc(C)nc3c2cnn3C)CCCCC1 | -18 |
| CCCOc1c(CNC2CCSC2)cccc1OC (centres undefined) | -11.2 |
| Cc1cc(C2CCCN2C(=O)CN2CC3(CCNCC3)OC2=O)on1 (centres undefined) | -5.06 |

| SMILES | cytotoxicity at 70.5 h [%] |
| --- | --- |
| COc1ccc2[nH]cc(C(=O)N3CC[C@H](CO)[C@@H](O)C3)c(=O)c2c1 | -6.72 |
| Fc1cccnc1Oc1cc(F)c(CN2CCCC2)c(F)c1 | -13.4 |
| CC(C)n1cnnc1CN(C)Cc1ccoc1 | -2.84 |
| O=C1CC(C(=O)N2CCc3sccc3C2)CN1Cc1cccnc1 (centres undefined) | 2.13 |
| CC(C)[C@H](Nc1cc(-c2ccncc2)nc2ccnn12)C(N)=O | 6.65 |
| O=C(c1ccc(F)cc1F)N1C[C@H]2CC[C@@H]1CN(Cc1ccccc1)C2 | -2.62 |
| Cc1nc(CN2CCCC(CCc3ccc(F)c(F)c3)C2)c[nH]1 (centres undefined) | 19.5 |
| CCn1cc(CN2CCCC2c2nc(C(C)C)no2)cc1C#N (centres undefined) | 21 |
| COCc1noc(-c2ccc(N(C)Cc3cn(C)nc3C)nc2)n1 | -5.15 |
| Cc1ccc(C2(CN(C)Cc3c(C)nn(C)c3C)CCNCC2)nc1 | 19.9 |
| CCn1ncnc1C(C)Nc1cc(C)c2ccc(SC)cc2n1 (centres undefined) | -11.1 |
| O=C(c1ccncc1)N1C[C@@H]2CC[C@H](C1)N(C(=O)C1CCCC1)C2 | 2.1 |
| CN1CCC(N(C)C[C@H]2CC[C@@H](Cc3ccc4c(cnn4C)c3)O2)CC1 | -7.57 |
| CCO[C@H]1C[C@@H](O)C12CCN(C1CCN(c3ccccc3)CC1)CC2 | -5.15 |
| O=C1CCc2cc(S(=O)(=O)NCc3cc4n(n3)CCNC4)ccc2N1 | -16.4 |
| CC(C)c1nccc(C2CC(=O)Nc3n[nH]c(C4CCC4)c32)n1 (centres undefined) | 2.19 |
| COc1cccc(N2CCN(Cc3ccc4[nH]ccc4c3)CC2=O)c1 | -12.1 |
| CCOC(=O)N1CCCC2(CCN(Cc3ccccc3C#N)C2)C1 (centres undefined) | -6.46 |
| CSCCC(=O)N1CCCC(c2nccn2Cc2ccncc2)C1 (centres undefined) | -5.49 |
| COc1cc2[nH]c(=O)c(CN3CCC[C@H]3CO)cc2c(OC)c1OC | 14 |
| CC(C)c1cc(C(=O)N2C[C@H]3CC[C@@H]2CN(Cc2cccnc2)C3)no1 | -12.5 |
| Cc1cc(NC2CCN(Cc3ccccn3)CC2)n2nc(C)c(C)c2n1 | 0.979 |
| C(=C\c1ccc(CN2CCCC2)cn1)/c1ccccc1 | 6.88 |
| O=C(NCCC1CN(Cc2cccnc2)CCO1)c1ccsc1 (centres undefined) | 6.62 |
| CC(CCc1ncnn1Cc1cccc(Cl)c1)N1CCCC1 (centres undefined) | -9.23 |
| Cc1cc(=O)[nH]c(SC(C)C(=O)N2CCC(c3ncc[nH]3)CC2)n1 (centres undefined) | 0.989 |
| Cc1cc(-n2nc(C)nc2-c2cn(CCN)nn2)ccn1 | -6.15 |
